Test results as given in patent US20180140579A1, “SACUBITRIL AND VALSARTAN FOR TREATING METABOLIC DISEASE” (NOVARTIS AG, priority 2015, published 2018).
Several values for one entry are separate records, joined by “and”; a condition that tells them apart may be missing. Identical values can stand only once.

Experiments:
[1] = test system: patients with mild-to-moderate hypertension and abdominal adiposity; test: Hyperinsulinemic-euglycemic glucose clamp (insulin sensitivity), clinical study NCT01631864; type: in vivo, human; settings: for Glucose infusion rate by body weight (Mbw), Day 56, adjusted mean / Insulin sensitivity index, Day 56, adjusted mean: Day 56 (week 8)
Protocol: (§1) At baseline and week 8, peripheral insulin sensitivity (hyperinsulinemic-euglycemic glucose clamp), abdominal subcutaneous adipose tissue lipolysis (microdialysis), whole-body lipolysis (glycerol tracer kinetics), energy expenditure and substrate oxidation (indirect calorimetry) were determined.
Patients were also stratified into 4 groups based on the baseline Homeostasis Model Assessment of Insulin Resistance (HOMA-IR) (<2.5 and ≥2.5) and use of statin therapy within 8 weeks prior to randomization.
The HEGC assessment was performed on Day −1 (baseline) and on Day 56 under fasting conditions. A dorsal hand vein was catheterized and kept warm for arterialized blood sampling and the contralateral arm was cathetered for the infusion of glucose and insulin. […] Blood samples to determine glucose levels during the HEGC were collected continuously (automated clamp) or at approximately 5-min intervals (manual clamp). The last 30 minutes (minutes 90-120) of the clamp were considered as the steady state period and the mean glucose infusion rate was calculated for this time period.
The insulin sensitivity index (SI) was calculated from steady-state glucose infusion rates, and plasma insulin and glucose concentrations at steady-state (SI: Glucose infusion rate/[plasma glucose×plasma insulin], μg/kg*min/[mmol/L*pmol/L]). Furthermore whole-body glucose disposal rate (M, mg/min) was calculated from the mean glucose infusion rate at steady state to assess peripheral insulin sensitivity. Finally, the metabolic clearance rate (MCR) was calculated from M-value and the mean blood glucose concentration (BG) at steady-state (MCR: M/BG, min*mmol). The glucose disposal rate was also expressed per unit of insulin at steady-state, calculated from M-value and plasma insulin concentrations (M/l, U/min).
Differences between treatments for change in SI from baseline were analyzed as above.

[2] = test system: patients with mild-to-moderate hypertension and abdominal adiposity; test: Blood pressure monitoring (mean seated BP); type: in vivo, human; settings: Day 57 vs baseline; LCZ696 400 mg QD or amlodipine 10 mg QD
Description: Seating BP was monitored at screening and throughout the study using the same equipment. During the home stay period, patients were given a home measurement device and instructed to monitor BP twice weekly at approximately the same time each morning (7-9 AM).

[3] = test system: patients with mild-to-moderate hypertension and abdominal adiposity; test: Abdominal subcutaneous adipose tissue microdialysis (local lipolysis); type: in vivo, human
[4] = test system: patients with mild-to-moderate hypertension and abdominal adiposity; test: as above; type: in vivo, human; settings: for Glucose in adipose tissue microdialysate, adjusted geometric mean ratio Day 57 vs Day 1 / Lactate in adipose tissue microdialysate, adjusted geometric mean ratio Day 57 vs Day 1 / Glycerol (free) in adipose tissue microdialysate, adjusted geometric mean ratio Day 57 vs Day 1 / interstitial glycerol levels at week 8 (subcutaneous adipose tissue lipolysis at rest): at rest; for Glycerol (free) in adipose tissue microdialysate, adjusted geometric mean ratio Day 57 vs Day 1: 8 weeks treatment; for interstitial glycerol levels at week 8 (subcutaneous adipose tissue lipolysis at rest): p=0.003 between groups
Protocol: Assessment of lipolysis at rest was performed on Day 1 prior to first dosage and on Day 57. Abdominal subcutaneous adipose tissue lipolysis was assessed by microdialysis in the fasting condition. […] Microdialysate samples for measurement of the analytes were collected at 30 minutes and 45 minutes in the flow calibration phase. Glycerol (an indicator of local lipolysis), glucose, and lactate concentrations were measured in the microdialysate, reflecting the interstitial concentrations in the adipose tissue. The ethanol ratio (ratio of ethanol concentration in dialysate to ethanol concentration in perfusate) was measured as an indicator of adipose tissue blood flow. For abdominal subcutaneous adipose tissue microdialysate data (ethanol ratio, dialysate lactate, dialysate glucose, and plasma glycerol, glycerol, NEFA, glucose, insulin, adrenalin, and noradrenalin) at rest, data was analyzed using repeated measures analysis on log transformed values with treatment, visit, time and treatment*visit*time interaction as fixed effects.

[5] = test system: patients with mild-to-moderate hypertension and abdominal adiposity; test: Safety assessments (adverse events); type: in vivo, human; settings: for Discontinuations due to AEs: LCZ696 N = 50, amlodipine N = 48
Protocol: Safety assessments included adverse events (AEs) and serious adverse events (SAEs) and were conducted throughout the study by regular monitoring of hematology, blood chemistry and urine analysis as well as assessments of vital signs (BP and pulse measurements), ECG, physical condition and body weight. The pharmacodynamics (PD) analysis set included all patients with available PD data and no protocol deviations with relevant impact on PD data. The safety analysis set included all patients who received any of the study drugs.

[6] = test system: patients with mild-to-moderate hypertension and abdominal adiposity; test: Energy expenditure and substrate oxidation by indirect calorimetry; type: in vivo, human; settings: LCZ696 400 mg QD or amlodipine 10 mg QD; for Respiratory quotient (carbon dioxide to oxygen ratio), Day 57 adjusted mean (95% CI): Day 57, at rest
Protocol: as §1
Energy expenditure and substrate oxidation were assessed in parallel by indirect calorimetry using a ventilated hood system. The ventilated hood measurements were recorded for 30 minutes in the resting state (during the flow calibration phase).

[7] = test system: patients with impaired glucose tolerance and cardiovascular disease or risk factors; settings: valsartan for 5 years, along with lifestyle modification; cited from earlier work
[8] = LCZ696 400 mg QD or amlodipine 10 mg QD
[9] = LCZ696 400 mg QD or amlodipine 10 mg QD, listed as AML
[10] = baseline to Day 56, LCZ696 400 mg QD or amlodipine 10 mg QD, 8 weeks
[11] = 15 min exercise, p=0.014 between groups
[12] = 30 min exercise, p=0.010 between groups
[13] = safety analysis set, 8-week treatment

Row | SMILES | Glucose infusion rate by body weight (Mbw), Day 56, adjusted mean [1, 8] | Insulin sensitivity index, Day 56, adjusted mean [1, 8] | mean reduction in msDBP (mean seated diastolic blood pressure) [2] | mean reduction in msSBP (mean seated systolic blood pressure) [2] | microdialysate glycerol at week 8 [3, 11] | microdialysate glycerol at week 8 [3, 12] | Glucose in adipose tissue microdialysate, adjusted geometric mean ratio Day 57 vs Day 1 ([4]; 30 + 45 min combined, (95% CI)) | Lactate in adipose tissue microdialysate, adjusted geometric mean ratio Day 57 vs Day 1 ([4]; 30 + 45 min combined, (95% CI)) | Glycerol (free) in adipose tissue microdialysate, adjusted geometric mean ratio Day 57 vs Day 1 ([4]; 30 min time point, (95% CI)) | Glucose in adipose tissue microdialysate, adjusted geometric mean ratio Day 57 vs Day 1 ([4]; 30 min time point, (95% CI)) | Lactate in adipose tissue microdialysate, adjusted geometric mean ratio Day 57 vs Day 1 ([4]; 30 min time point, (95% CI)) | Glycerol (free) in adipose tissue microdialysate, adjusted geometric mean ratio Day 57 vs Day 1 ([4]; 45 min time point, (95% CI)) | Glucose in adipose tissue microdialysate, adjusted geometric mean ratio Day 57 vs Day 1 ([4]; 45 min time point, (95% CI)) | Lactate in adipose tissue microdialysate, adjusted geometric mean ratio Day 57 vs Day 1 ([4]; 45 min time point, (95% CI)) | interstitial glycerol levels at week 8 (subcutaneous adipose tissue lipolysis at rest) [4] | Discontinuations due to AEs ([5]; 8-week treatment) | AEs suspected to be study drug related [5, 13] | Peripheral edema reported [5, 13] | overall incidence of AEs [5, 13] | Respiratory quotient (carbon dioxide to oxygen ratio), Day 57 adjusted mean (95% CI) [6] | other results
1 | CCOC(=O)C1=C(COCCN)NC(C)=C(C(=O)OC)C1c1ccccc1Cl (stereo not drawn) [Amlodipine, reference compound] | 3.87 mg/(min * kg) | 1.75 μg/kg * min/(mmol/L * pmol/L) | −10.0±7.8 mmHg | −12.4±14.7 mmHg | 128.8 µmol/L | 149.19 µmol/L | 0.99 (0.85; 1.16) | 0.90 (0.70; 1.16) | 0.87 (0.76; 0.99) | 1.00 (0.85; 1.16) | 0.91 (0.69; 1.19) | 0.85 (0.74; 0.98) | 0.98 (0.83; 1.16) | 0.90 (0.70; 1.16) | 63.99 µmol/L | three | 46% | 16 patients | 77.1% | 0.77 (0.746; 0.804) | Glucose infusion rate by body weight (Mbw), Day 56, adjusted mean [1, 9]: 3.88 mg/(min * kg); Insulin sensitivity index, Day 56, adjusted mean [1, 9]: 1.76 μg/kg * min/(mmol/L * pmol/L); Glucose infusion rate by body weight (Mbw), adjusted mean change from baseline [1, 10]: 0.03 mg/(min * kg); Insulin sensitivity index, adjusted mean change from baseline [1, 10]: 0.065 μg/kg * min/(mmol/L * pmol/L); Insulin sensitivity index, adjusted mean change from baseline ([1]; baseline to Day 56, LCZ696 400 mg QD or amlodipine 10 mg QD, 8 weeks, listed as amlodipine): +0.065 μg/kg * min/(mmol/L * pmol/L); Glycerol (free) in adipose tissue microdialysate, adjusted geometric mean ratio Day 57 vs Day 1 ([4]; 30 + 45 min time points combined, (95% CI)): 0.86 (0.75; 0.97); Resting energy expenditure, Day 57 adjusted mean (95% CI) [6]: 1991.4 (1904.82; 2078.01) kcal
2 | CCCCC(=O)N(Cc1ccc(-c2ccccc2-c2nn[n-]n2)cc1)C(C(=O)[O-])C(C)C.CCOC(=O)C(C)CC(Cc1ccc(-c2ccccc2)cc1)NC(=O)CCC(=O)[O-].[Na+].[Na+].[Na+] [LCZ696, trisodium [3-((1S,3R)-1-biphenyl-4-ylmethyl-3-ethoxycarbonyl-1-butylcarbamoyl)propionate-(S)-3′-methyl-2′-(pentanoyl{2″-(tetrazol-5-ylate)biphenyl-4′-ylmethyl}amino)butyrate] hemipentahydrate] | 4.49 mg/(min * kg) | 1.88 μg/kg * min/(mmol/L * pmol/L) and 1.86 μg/kg * min/(mmol/L * pmol/L) | −12.4±9.1 mmHg | −21.0±16.1 mmHg | 153.1 µmol/L | 187.63 µmol/L | 1.02 (0.88; 1.18) | 0.84 (0.66; 1.06) | 1.02 (0.90; 1.16) | 1.03 (0.86; 1.20) | 0.81 (0.63; 1.04) | 1.07 (0.94; 1.22) | 1.01 (0.86; 1.18) | 0.86 (0.68; 1.09) | 80.53 µmol/L | two | 24% | one | 60.0% | 0.78 (0.760; 0.814) | Metabolic clearance rate, Day 56, adjusted mean ([1]; Day 56, LCZ696 400 mg QD or amlodipine 10 mg QD): 79.07 mmol·min; Insulin sensitivity index, Treatment Difference (LCZ696-Amlodipine) ([1]; difference in adjusted mean change from baseline to Day 56 (95% CI), not statistically significant): 0.128 (−0.155; 0.410) μg/kg * min/(mmol/L * pmol/L); Glucose infusion rate by body weight (Mbw), Treatment Difference (LCZ696-Amlodipine) ([1]; difference in adjusted mean change from baseline to Day 56 (95% CI), p = 0.016): 0.61 (0.12; 1.11) mg/(min * kg); Metabolic clearance rate, Treatment Difference (LCZ696-Amlodipine) ([1]; difference in adjusted mean change from baseline to Day 56 (95% CI), p = 0.0312): 9.66 (0.89; 18.42) min * mmol; Glucose, Treatment differences, ratio of GMR (LCZ696 vs amlodipine) ([4]; 30 + 45 min combined, (95% CI)): 1.03 (0.83; 1.27); Lactate, Treatment differences, ratio of GMR (LCZ696 vs amlodipine) ([4]; 30 + 45 min combined, (95% CI)): 0.93 (0.65; 1.31); Glucose, Treatment differences, ratio of GMR (LCZ696 vs amlodipine) ([4]; 30 min time point, (95% CI)): 1.03 (0.82; 1.29); Glycerol (free), Treatment differences, ratio of GMR (LCZ696 vs amlodipine) ([4]; 30 min time point, (95% CI)): 1.18 (0.96; 1.43); Lactate, Treatment differences, ratio of GMR (LCZ696 vs amlodipine) ([4]; 30 min time point, (95% CI)): 0.89 (0.62; 1.29); Glucose, Treatment differences, ratio of GMR (LCZ696 vs amlodipine) ([4]; 45 min time point, (95% CI)): 1.03 (0.82; 1.29); Lactate, Treatment differences, ratio of GMR (LCZ696 vs amlodipine) ([4]; 45 min time point, (95% CI)): 0.96 (0.68; 1.36); change in ethanol ratio (indicator of adipose tissue blood flow), between treatment groups ([4]; LCZ696 vs amlodipine, any time point except 45 minute time point in the LCZ696 group (small, not considered relevant)): No significant differences; mild orthostatic hypertension reported ([5]; both resolved by the end of the study, suspected to be related to study drug): Two; Pruritus reported [5, 13]: five; Resting energy expenditure, Day 57 adjusted mean (95% CI) [6]: 1960.1 (1879.42; 2040.90) kcal
3 | CCCCC(=O)N(Cc1ccc(-c2ccccc2-c2nnn[nH]2)cc1)[C@H](C(=O)O)C(C)C [valsartan, S—N-valeryl-N-{[2′-(1H-tetrazole-5-yl)-biphenyl-4-yl]-methyl}-valine] | – | – | – | – | – | – | – | – | – | – | – | – | – | – | – | – | – | – | – | – | relative reduction in the incidence of diabetes [7]: 14%
